Assay results taken from article PMC9460261, “Need for a Standardized Translational Drug Development Platform: Lessons Learned from the Repurposing of Drugs for COVID-19” (Microorganisms, 2022).
Where a name gives a salt, the structure may show the parent alone. Read-outs that look alike come from different tables or passages of the source.

Columns and labels:
[1] = Population PK model from satellite PK studies in hamster; conditions: for CL/F, elimination clearance, population estimate (%RSE) / Q/F (Q1/F), inter-compartment clearance, population estimate (%RSE) / VC/F, central volume of distribution, population estimate (%RSE) / VP/F, peripheral volume of distribution, population estimate (%RSE) / KA, absorption rate constant, population estimate (%RSE): hamster of the study's median weight (80-131 g)
[2] = Plasma protein binding, hamster; conditions: for fraction unbound: hamster, plasma
[3] = Binding to antiviral assay medium by Rapid Equilibrium Dialysis; conditions: for fraction unbound: bovine
[4] = Plasma protein binding, human; conditions: for fraction unbound: human, plasma
[5] = tested on: SARS-CoV-2 in Calu-3 cells
SARS-CoV-2 in Vero cells [6] = tested on: SARS-CoV-2 in Vero cells
[7] = tested on: SARS-CoV-2 in Calu-3 cells; experiment: microbe, parasite or virus in culture
SARS-CoV-2 [8] = conditions: cited from earlier work
[9] = Population PK model in human (digitized literature data); conditions: human; modelled from digitized data; ref 68 (ambroxol), 71-73 (cepharanthine), 78 (fluvoxamine), 80 (molnupiravir)
SARS-CoV-2 in Vero cells [10] = experiment: microbe, parasite or virus in culture; conditions: Severe acute respiratory syndrome coronavirus 2, Vero
SARS-CoV-2 [11] = format: in vivo, Syrian hamster
in vitro = conditions: African green monkey, Selectivity Index (Vero cells)
[12] = cited from earlier work
[13] = equilibrium dialysis, DNDi in-house
[14] = Severe acute respiratory syndrome coronavirus 2, Calu-3, read-out: Calu-3 cells Average IC50
[15] = read-out: VERO cells Average IC50, With Pgp pump inhibitor, 2 μM CP-100356, * one replicate only
[16] = read-out: VERO cells Average IC50, Without Pgp pump inhibitor, * one replicate only
[17] = antiviral assay medium (DMEM with 2% v/v FCS)
[18] = doses, frequency, duration as in Table 1
[19] = host cell Calu-3, read-out: SARS-CoV-2 EC50
[20] = host cell Vero, ref 25, read-out: SARS-CoV-2 EC50

Compound | CL/F, elimination clearance, population estimate (%RSE) [1] | Q/F (Q1/F), inter-compartment clearance, population estimate (%RSE) [1] | VC/F, central volume of distribution, population estimate (%RSE) [1] | VP/F, peripheral volume of distribution, population estimate (%RSE) [1] | Activity In Vitro; Potency EC50 or IC50 < 10 µM; Calu-3 Cells [5] | KA, absorption rate constant, population estimate (%RSE) [1] | Activity In Vitro; Potency EC50 or IC50 < 10 µM; Vero Cells (SARS-CoV-2 in Vero cells [6]) | IC50 [7, 14] [µM] | IC50 (SARS-CoV-2 in Vero cells [10]; [15]) [µM] | IC50 (SARS-CoV-2 in Vero cells [10]; [16]) [µM] | fraction unbound [2] | fraction unbound [3, 17] | fraction unbound [4] | Activity in SARS-CoV-2 Hamster Model (SARS-CoV-2 [11]; [18]) | selectivity ratio (in vitro; Without Pgp pump inhibitor) | further results
C[C@@]1(F)[C@H](O)[C@@H](CO)O[C@H]1n1cnc2c(=O)[nH]c(N)nc21 [AT-273] | 5.77 (33.1) mL/h | 6730 (12.2) mL/h | 49200 (13.2) mL | 84800 (27.3) mL | – | – | – | – | – | – | – | – | – | – | – | KTR, population estimate (%RSE) ([1]; hamster 119 g): 12.3 (50.5) h-1; Fraction unbound in plasma, hamster [2, 13]: 95.5%; Fraction unbound in assay medium ([3]; 2% serum DMEM media, DNDi in-house data): 99.1%; Fraction unbound in plasma, human [4, 13]: 57.8%
Nc1c(Br)cc(Br)cc1CN[C@H]1CC[C@H](O)CC1 [Ambroxol, ambroxol] | 4860 (11.3%) mL/h | 1180 (22.5%) mL/h | 12000 (10.9%) mL | 16100 (31.6%) mL | No (Potency EC50 or IC50 < 10 µM) | 4.76 (15.1%) h-1 | No (Potency EC50 or IC50 < 10 µM) | > 50 | > 50 | > 50 | 0.125 | 0.954 | 0.238 | No | – | Dose effect on F (power) ([1]; covariate, hamster model): 0.689 (11.1%); EC50 (SARS-CoV-2 [8]; host cell Vero E6, ref 47, read-out: SARS-CoV-2 EC50): > 30 µM; CL/F, population estimate (%RSE) [9]: 41.4 (3.0%) L/h
CCN(CC)Cc1cc(Nc2ccnc3cc(Cl)ccc23)ccc1O [Amodiaquine, amodiaquine] | 4390 (7.44%) mL/h | – | 158 (15.3%) mL | – | No (Potency EC50 or IC50 < 10 µM) | 0.0784 (6.52%) h-1 | Yes (Potency EC50 or IC50 < 10 µM) | > 50 | 2.6 | 8.8 | 0.096 | 0.878 | 0.067 | No (parent) | > 5.7 | Route effect (SC) on CL/F ([1]; covariate, hamster model): -85.3 (1.81%); Route effect (SC) on KA ([1]; covariate, hamster model): -20.4 (19.8%); EC50 (SARS-CoV-2 [8]; [19]): > 50 µM; EC50 (SARS-CoV-2 [8]; host cell Huh7.5, read-out: SARS-CoV-2 EC50): 0.6 µM; EC50 (SARS-CoV-2 [8]; host cell Vero CCL81, read-out: SARS-CoV-2 EC50): 1.6 µM; EC50 (SARS-CoV-2 [8]; host cell Vero E6, ref 29, read-out: SARS-CoV-2 EC50): 10 µM; EC50 (SARS-CoV-2 [8]; host cell Vero E6, ref 30, read-out: SARS-CoV-2 EC50): 4.9 µM; EC50 (SARS-CoV-2 [8]; [20]): 5.2 µM; IC50 (SARS-CoV-2 in Vero cells [10]; read-out: EC50 or IC50, Vero Cells): ~10 µM; selectivity ratio (in vitro; With Pgp pump inhibitor): > 19
COC(=O)N[C@H](C(=O)N[C@@H](Cc1ccccc1)[C@@H](O)CN(Cc1ccc(-c2ccccn2)cc1)NC(=O)[C@@H](NC(=O)OC)C(C)(C)C)C(C)(C)C [Atazanavir, atazanavir] | – | – | – | – | – | – | – | 21 | > 50 | 45.5 | 0.2 | 0.348 | – | no activity | > 2.2 | EC50 (SARS-CoV-2 [8]; atazanavir and ATZ/ritonavir combination, read-out: EC50 in infected A549 lung epithelia cells): 0.6 µM; EC50 (SARS-CoV-2 [8]; host cell A549, read-out: SARS-CoV-2 EC50): 0.2 µM; EC50 (SARS-CoV-2 [8]; host cell Vero E6, ref 23, read-out: SARS-CoV-2 EC50): 2 µM; EC50 (SARS-CoV-2 [8]; host cell Vero E6, ref 24, read-out: SARS-CoV-2 EC50): 9.36 µM; EC50 (SARS-CoV-2 [8]; [20]): > 50 µM
CNCCC(Oc1ccc(C(F)(F)F)cc1)c1ccccc1 (centres unmarked) [Fluoxetine, fluoxetine] | 447 (7.0) mL/h | – | 3530 (6.5) mL | – | No (key: Yes: Potency EC50 or IC50 < 10 µM; No: Potency EC50 or IC50 < 10 µM) | 5.34 (11.7) h-1 | Yes ^T (key: Yes: Potency EC50 or IC50 < 10 µM; No: Potency EC50 or IC50 < 10 µM) | – | – | – | 0.051 | 0.682 | 0.048 | – | – | Dose effect on FFP (power) ([1]; covariate, hamster model): -0.0175 (13.7); Toxicity observed (^T), Vero Cells (SARS-CoV-2 in Vero cells [6]): Yes ^T; IC50 (SARS-CoV-2 in Vero cells [10]; read-out: VERO cells Average IC50, With Pgp pump inhibitor): 5.6 µM; IC50 (SARS-CoV-2 in Vero cells [10]; read-out: VERO cells Average IC50, Without Pgp pump inhibitor): 7.7 µM; Activity in SARS-CoV-2 Hamster Model (SARS-CoV-2 [11]; hamster, in vivo): No
COCCCC/C(=N\OCCN)c1ccc(C(F)(F)F)cc1 [Fluvoxamine maleate, fluvoxamine maleate] | 9500 (10.8) mL/h | – | 16500 (12.8) mL | – | No (key: Yes: Potency EC50 or IC50 < 10 µM; No: Potency EC50 or IC50 < 10 µM) | – | No (key: Yes: Potency EC50 or IC50 < 10 µM; No: Potency EC50 or IC50 < 10 µM) | > 50 | 32.6 | 26 | 0.281 | 0.771 | 0.254 | No | – | Dose effect on F (power) ([1]; covariate, hamster model): 1.21 (7.4); CL/F, population estimate (%RSE) [9]: 0.148 (3.0) L/h
Cc1c(O)cccc1C(=O)N[C@@H](CSc1ccccc1)[C@H](O)CN1C[C@H]2CCCC[C@H]2C[C@H]1C(=O)NC(C)(C)C [Nelfinavir, nelfinavir] | 613 (4.2) mL/h | – | 547 (15.3) mL | – | Yes (Potency EC50 or IC50 < 10 µM) | – | Yes (Potency EC50 or IC50 < 10 µM) | 12.8 | 1.6 | 5.5 | 0.001 | 0.243 | 0.001 | No ^e | > 9 | Dose effect on F (linear) ([1]; covariate, hamster model): 0.384 (32); Dose effect on KA (linear) ([1]; covariate, hamster model): -0.801 (3.7); Toxicity observed (^T), Vero Cells (SARS-CoV-2 in Vero cells [6]): Yes ^T; IC50 ([7]; Severe acute respiratory syndrome coronavirus 2, Calu-3, read-out: EC50 or IC50, Calu-3 Cells (borderline)): 13 µM; EC50 (SARS-CoV-2 [8]; host cell Vero E6, ref 41, read-out: SARS-CoV-2 EC50): 2.89 µM; EC50 (SARS-CoV-2 [8]; host cell Vero, ref 40, read-out: SARS-CoV-2 EC50): 0.048 µM; EC50 (SARS-CoV-2 [8]; host cell VeroE6/TMPRSS2, read-out: SARS-CoV-2 EC50): 0.77 µM; Lung inflammation and disease outcome (SARS-CoV-2 [11]; hamster, in vivo): diminution of lung inflammation; Virus load (SARS-CoV-2 [11]; hamster, in vivo): no effect on viral load was detected; selectivity ratio (in vitro; With Pgp pump inhibitor): > 32
CC(C)OC(=O)[C@H](C)N[P@](=O)(OC[C@H]1O[C@@H](n2ccc(=O)[nH]c2=O)[C@](C)(F)[C@@H]1O)Oc1ccccc1 [Sofosbuvir, sofosbuvir] | 122000 (14.4) mL/h | 139000 (17.2) mL/h | 46600 (29.9) mL | 1490000 (27.9) mL | No (Potency EC50 or IC50 < 10 µM) | 0.622 (15.9) h-1 | No (Potency EC50 or IC50 < 10 µM) | > 50 | > 50 | > 50 | – | – | – | No | – | EC50 (SARS-CoV-2 [8]; [19]): 7.3 µM; EC50 (SARS-CoV-2 [8]; host cell HuH-7, read-out: SARS-CoV-2 EC50): 5.1 µM; EC50 (SARS-CoV-2 [8]; host cell Vero, ref 26, read-out: SARS-CoV-2 EC50): > 10 µM; fraction unbound [3]: 0.716; Activity in SARS-CoV-2 Hamster Model (SARS-CoV-2 [11]; doses, frequency, duration as in Table 1, listed as sofosbuvir): no activity
CCC(CC)COC(=O)[C@H](C)N[P@](=O)(OC[C@H]1O[C@@](C#N)(c2ccc3c(N)ncnn23)[C@H](O)[C@@H]1O)Oc1ccccc1 [remdesivir] | – | – | – | – | – | – | – | – | – | – | – | – | – | – | – | Plasma stability, half-life ([12]; genetically modified mouse (Cesc-/- knockout)): around 25 min; Plasma stability, half-life ([12]; mice): < 5 min; Effect on lung infectious titers (SARS-CoV-2 [11]; hamster, in vivo): no significant effect; Effect on lung viral RNA yields (SARS-CoV-2 [11]; hamster, in vivo): little significant effect
